Laboratory results as given in patent US9072691B2, “Nutritional supplement for disinhibiting therapy of psychiatric patients” (priority 2012, dated 2015).

Key:
[1] = cited from earlier work
[2] = Individual components administered separately from the other components; assay type: in vivo, human; settings: administered separately from the other components of the invention
Text: Thus, the invention is named “Formula of activity”. The invention offers methods of treating patients who refuse food and can die as a result. […] It is possible that this new effect is produced by a new substance that is formed as a result of the interaction of the components of the invention with each other or with other naturally occurring substances in the body. The components may exert their effect by through the reticular formation in the brain, which is the regulating center of different brain functions. The reticular formation coordinates the interactions between all structures of the brain. It analyzes and corrects the functions of the brain structures and ensures their proper hierarchical dependencies, as well as the readiness of the central nervous system to perform its functions.

[3] = Effect of composition on selected patients and disorders (case reports); assay type: in vivo, human
Text: The following are several of many patients who were successfully treated by the invention.

Compound: CCC1(CCC(C)C)C(=O)N=C([O-])NC1=O.[Na+] (stereo not shown) [Barbamyl]
- Dependency on repeated injections [1]: lead to psychological and physiological dependency on this substance

Compound: O=S(=O)([O-])[O-].[Mg+2] [Magnesium sulfate, magnesium sulfate]
- Stimulating or disinhibiting effect / effect on appetite when administered alone [2]: does not lead to a desired stimulating or disinhibiting effect

Compound: CN1CCN(CCCN2c3ccccc3Sc3ccc(C(F)(F)F)cc32)CC1 [Stelazine]
- Clinical outcome ([3]; Patient N, postpartum psychosis, 5 mg once per day first week, then 1 mg two times a day): improved regarding their condition and delusional ideas; however they remained apathetic, fatigued and indifferent

Compound: O=S(=O)([O-])CC(S)CS.[Na+] (stereo not shown) [Unithiol]
- Stimulating or disinhibiting effect / effect on appetite when administered alone [2]: does not lead to a desired stimulating or disinhibiting effect

Compound: CN(C)CCCN1c2ccccc2Sc2ccc(Cl)cc21 [aminazine]
- Effect after administration ([3]; Patient B, paranoid schizophrenia, after disinhibition, 50 mg intravenously): the patient fell asleep

Compound: CN1C(=O)CN=C(c2ccccc2)c2cc(Cl)ccc21 [valium]
- Sleep ([3]; Patient S, closed head trauma, before the course of the invention, injection): they would fall asleep only after injection of valium

Compound: calcium pantothenate
- Stimulating or disinhibiting effect / effect on appetite when administered alone [2]: does not lead to a desired stimulating or disinhibiting effect
